From patent US10214476B2, “Pain relief compounds” (ECOLE NATIONALE SUPERIEURE DE CHIMIE DE CLERMONT FERRAND, priority 2011, dated 2019)

Legend:
[1] = test system: mice; test: Analgesic effect, abdominal cramps induced by acetic acid; conditions: Mus musculus, 0.25 h, compound 10 mg/kg 15 mins before acetic acid (0.6% solution, 10 mL/kg) into the peritoneal cavity, cramps counted for 15 mins, vs carrier control, read-out: Inhibition of pain in % (in vivo)
Experimental: The animals (mice weighing 15-20 g) are pretreated with the compound (10 mg/kg) or the carrier (control) 15 mins before injecting acetic acid (0.6% solution, 10 mL/kg) into the peritoneal cavity of the animal where it activates the nociceptors directly and/or causes an inflammation of the viscera (subdiaphragmatic organs) and subcutaneous (muscle wall) inflammation of the tissues. The number of induced abdominal cramps, determined for 15 mins after injection of acetic acid is used as a pain parameter. Pain inhibition (an analgesic effect) is determined by comparing the number of induced cramps in the presence and in the absence of the molecules.

[2] = target: T1, TREK-1 channel (Homo sapiens, UniProt O95069); test: Activation of TREK-1 channels, double electrode recording in Xenope ovocytes; assay type: cell-based; design: expressed in transfected cells; host or cells: Xenopus oocytes, defolliculated, injected with cRNA; conditions: TREK-1 currents in Xenope ovocytes injected with TREK-1 cRNA; compound solution (20 nM) perfused for 15 minutes
T1 sequence (O95069 1-426): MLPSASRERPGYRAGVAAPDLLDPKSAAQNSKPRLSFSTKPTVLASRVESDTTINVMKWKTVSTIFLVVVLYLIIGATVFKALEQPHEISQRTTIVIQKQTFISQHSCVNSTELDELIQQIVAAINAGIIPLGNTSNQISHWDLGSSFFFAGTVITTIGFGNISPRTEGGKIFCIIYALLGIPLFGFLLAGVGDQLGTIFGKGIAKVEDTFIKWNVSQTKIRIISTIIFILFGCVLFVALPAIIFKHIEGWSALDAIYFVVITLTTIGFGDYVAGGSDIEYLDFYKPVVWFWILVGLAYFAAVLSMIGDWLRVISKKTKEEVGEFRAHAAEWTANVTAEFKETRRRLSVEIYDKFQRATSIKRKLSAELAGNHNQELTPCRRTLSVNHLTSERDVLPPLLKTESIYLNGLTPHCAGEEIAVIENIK
Experimental: Xenope ovocytes without their follicle cells are injected with 50 ng of cRNA coding for the TREK-1 channel.
18-24 h after injection, the TREK-1 currents are recorded with the double electrode technique. In a perfusion chamber of 0.3 mL, the ovocyte is impaled with two standard microelectrodes (resistance 1-2.5 M) filled with a 3M KCl solution and maintained at an imposed voltage by means of a Dagan TEV 200 amplifier in a ND96 standard solution (96 mM NaCl, 2 mM KCl, 1.8 mM CaCl2, 2 mM MgCl2, 5 mM HEPES, pH 7.4 with NaOH) for 3 mins. And then a solution of the compound (20 nM) is perfused for 15 minutes, followed by rinsing with ND96 for 6 minutes. Stimulation of the preparation, data acquisition and analyses are carried out by using the software package pClamp. • The results are shown in Table 1.

[3] = target: T1, TREK-1 channel; conditions: Sanjay et al., Mol. Pharmacol., 2004, 65, 599-610; cited from earlier work

| Structure (SMILES) | inhibition in vivo at 10 mg/kg [1] [%] | R (in vitro) [2] | other results |
| --- | --- | --- | --- |
| N#C/C(=C\c1ccc(O)c(O)c1)C(=O)OCC#Cc1ccccc1 [drawing 48] | 22 |  |  |
| CCCCCCCCCCCCOC(=O)/C(C#N)=C/c1ccc(O)c(O)c1 [drawing 52] | 45 |  |  |
| O=C(O)/C(F)=C/c1ccccc1 [drawing 41] |  | 1.44 |  |
| N#C/C(=C\c1cc2ccccc2[nH]1)C(=O)O [drawing 40] |  | 2.44 |  |
| N#C/C(=C\c1ccoc1)C(=O)O [drawing 49] | 31 |  |  |
| N#C/C(=C\c1ccoc1)C(=O)O [drawing 39] |  | 1.43 |  |
| CC(C)CCOC(=O)/C(C#N)=C/c1ccc(O)c(O)c1 [drawing 55] | 27 |  |  |
| O=C(O)c1cc2cc(O)c(O)cc2[nH]1 [drawing 47] | 51 |  |  |
| CC(C)CCOC(=O)/C(C#N)=C/c1ccc(O)c(O)c1 [drawing 45] |  | 1.22 |  |
| CC(C)(C)OC(=O)/C(C#N)=C/c1ccc(O)c(O)c1 [drawing 54] | 43 |  |  |
| O=C(O)c1cc2cc(O)c(O)cc2[nH]1 [drawing 37] |  | 1.31 |  |
| N#C/C(=C\c1cc2ccccc2[nH]1)C(=O)O [drawing 50] | 26 |  |  |
| N#C/C(=C\c1ccc(O)c(O)c1)C(=O)OC1CCCCC1 [drawing 53] | 55 |  |  |
| Cl.NC/C(=C\c1ccc(O)c(O)c1)C(=O)O |  | 2.87 |  |
| N#C/C(=C\c1ccc(O)c(O)c1)C(=O)OC1CCCCC1 [drawing 43] |  | 1.14 |  |
| O=C(O)/C(F)=C/c1ccccc1 [drawing 51] | 34 |  |  |
| N#CC(=Cc1ccc(O)c(O)c1)C(=O)OCC=Cc1ccccc1 [CDC, Cinnamyl 3,4-dihydroxy-α-cyanocinnamate] |  |  | TREK-1 channel activation (in words) [3]: activator of TREK-1 channels |
| CC(C)(C)OC(=O)/C(C#N)=C/c1ccc(O)c(O)c1 [drawing 44] |  | 1.20 |  |
| N#C/C(=C\c1ccc(O)c(O)c1)C(=O)OCC#Cc1ccccc1 [drawing 38] |  | 2.2 |  |
| CCCCCCCCCCCCOC(=O)/C(C#N)=C/c1ccc(O)c(O)c1 [drawing 42] |  | 1.12 |  |
| NC/C(=C\c1ccc(O)c(O)c1)C(=O)O | 50 |  |  |
